According to patent US20090143279A1 (priority 2007, published 2009):
Where two headings read alike, the source gives them in different places.

Assays:
[1] = system: nuOXPHOS transcripts; assay type: cell-based, mouse; conditions: Conc 20 μM; for nucOX (composite Z-score): normalized score vs mock-treated (DMSO) wells
[2] = system: reactive oxygen species; assay type: cell-based, mouse; conditions: Conc 20 μM; for ROS (composite Z-score): normalized score vs mock-treated (DMSO) wells
[3] = system: cytochrome c; assay type: cell-based, mouse; conditions: Conc 20 μM; for cyt c (composite Z-score): normalized score vs mock-treated (DMSO) wells
[4] = system: OXPHOS gene expression; assay type: cell-based, mouse; conditions: Conc 20 μM; for GE-HTS (composite Z-score): normalized score vs mock-treated (DMSO) wells
[5] = system: cellular dehydrogenase activity; conditions: Conc 20 μM; for MTT (composite Z-score): normalized score vs mock-treated (DMSO) wells
[6] = system: mtOXPHOS transcripts; assay type: cell-based, mouse; conditions: Conc 20 μM; for mitoOX (composite Z-score): normalized score vs mock-treated (DMSO) wells
[7] = system: mitochondrial membrane potential; assay type: cell-based, mouse; conditions: Conc 20 μM; for ΔΨm (composite Z-score): normalized score vs mock-treated (DMSO) wells
[8] = system: C2C12 myotubes; conditions: Conc 20 μM; for Viability (composite Z-score): normalized score vs mock-treated (DMSO) wells
[9] = composite Z-score vs mock-treated (DMSO) wells
[10] = normalized composite Z-score vs mock-treated (DMSO) wells

C[C@]12CCC(=O)C=C1CCc1ccc(O)cc12
nucOX [1, 9]: −0.281 | ROS [2, 9]: 0.676 | cyt c [3, 9]: −0.516 | GE-HTS [4, 9]: 0.075 | MTT [5, 9]: −0.984 | mitoOX [6, 9]: 0.846 | ΔΨm [7, 9]: −0.484 | Viability [8, 9]: −0.592

COc1ccc2c(c1)C1(C)CCC(O)CC1CC2 (centres unmarked)
nucOX ([1]; composite Z-score vs DMSO): −0.350 | ROS ([2]; composite Z-score vs DMSO): 0.559 | cyt c ([3]; composite Z-score vs DMSO): −0.087 | GE-HTS ([4]; composite Z-score vs DMSO): −0.375 | MTT ([5]; composite Z-score vs DMSO): −2.017 | mitoOX ([6]; composite Z-score vs DMSO): −0.270 | ΔΨm ([7]; composite Z-score vs DMSO): −0.840 | Viability ([8]; composite Z-score vs DMSO): −1.078

COc1cc2c(cc1OC)C1(O)C(=O)c3ccc(O)c(C(=O)O)c3OC1CO2 (centres unmarked)
nucOX [1, 10]: −0.162 | ROS [2, 10]: −0.738 | cyt c [3, 10]: 0.670 | GE-HTS [4, 10]: −0.404 | MTT [5, 10]: −0.976 | mitoOX [6, 10]: −0.773 | ΔΨm [7, 10]: −0.494 | Viability [8, 10]: 0.509

Cc1ccc2c(c1)CC[C@H]1CC(=O)CC[C@]21C
nucOX [1, 9]: 0.870 | ROS [2, 9]: 0.072 | cyt c [3, 9]: 0.009 | GE-HTS [4, 9]: 0.903 | MTT [5, 9]: −2.132 | mitoOX [6, 9]: 0.748 | ΔΨm [7, 9]: −0.470 | Viability [8, 9]: −0.093

COc1cccc2c1CCC1=CC(=O)CCC12C (centres unmarked)
nucOX [1, 9]: −0.372 | ROS [2, 9]: 0.673 | cyt c [3, 9]: −0.293 | GE-HTS [4, 9]: −0.465 | MTT [5, 9]: −1.530 | mitoOX [6, 9]: −0.626 | ΔΨm [7, 9]: −0.506 | Viability [8, 9]: −0.577

COc1cccc2c1CCC1CC(=O)CCC21C (centres unmarked)
nucOX [1, 10]: −0.900 | ROS [2, 10]: −0.109 | cyt c [3, 10]: 1.307 | GE-HTS [4, 10]: −0.872 | MTT [5, 10]: −1.068 | mitoOX [6, 10]: −0.612 | ΔΨm [7, 10]: 1.124 | Viability [8, 10]: −0.060

CCOC(=O)c1oc2c(OC)c(O)cc(O)c2c(=O)c1-c1cc(OC)c(OC)c(OC)c1
nucOX [1, 9]: −1.229 | ROS [2, 9]: 0.244 | cyt c [3, 9]: −0.783 | GE-HTS [4, 9]: −1.306 | MTT [5, 9]: −0.761 | mitoOX [6, 9]: −1.218 | ΔΨm [7, 9]: −0.397 | Viability [8, 9]: −1.124

COC1CC(C)C2OC2CC(C)C2CC(C)(C)C12 (centres unmarked)
nucOX [1, 10]: −0.466 | ROS [2, 10]: 0.120 | cyt c [3, 10]: 0.933 | GE-HTS [4, 10]: −0.497 | MTT [5, 10]: −0.794 | mitoOX [6, 10]: −0.439 | ΔΨm [7, 10]: −0.699 | Viability [8, 10]: −1.011

C=C1CCC(C2CC(=O)OC2=O)C(=O)CCC2C1CC2(C)C (centres unmarked)
nucOX [1, 10]: −1.009 | ROS [2, 10]: 0.012 | cyt c [3, 10]: 0.345 | GE-HTS [4, 10]: −1.109 | MTT [5, 10]: −0.968 | mitoOX [6, 10]: −1.046 | ΔΨm [7, 10]: −0.249 | Viability [8, 10]: −0.749

CCOc1ccc(C(=O)C2=C(O)C(OC)C(O)(OC)C=C2)cc1 (centres unmarked)
nucOX (composite Z-score) [1]: −1.393 | ROS (composite Z-score) [2]: −0.264 | cyt c (composite Z-score) [3]: 0.559 | GE-HTS (composite Z-score) [4]: −1.530 | MTT (composite Z-score) [5]: −1.130 | mitoOX (composite Z-score) [6]: −1.568 | ΔΨm (composite Z-score) [7]: 0.089 | Viability (composite Z-score) [8]: −0.048

CCOc1cc(CC(=O)c2ccc(O)c(O)c2O)ccc1O
nucOX (composite Z-score) [1]: 1.496 | ROS (composite Z-score) [2]: 0.189 | cyt c (composite Z-score) [3]: 0.255 | GE-HTS (composite Z-score) [4]: 1.215 | MTT (composite Z-score) [5]: −1.279 | mitoOX (composite Z-score) [6]: 0.371 | ΔΨm (composite Z-score) [7]: −1.362 | Viability (composite Z-score) [8]: −1.198

CC12CCC(O)CC1CCc1ccccc12 (centres unmarked)
nucOX (composite Z-score) [1]: −0.023 | ROS (composite Z-score) [2]: 0.477 | cyt c (composite Z-score) [3]: 0.790 | GE-HTS (composite Z-score) [4]: −0.250 | MTT (composite Z-score) [5]: −0.574 | mitoOX (composite Z-score) [6]: −0.717 | ΔΨm (composite Z-score) [7]: −0.339 | Viability (composite Z-score) [8]: 0.056

CC(=O)O[C@H]1CC[C@]2(C)C3=CC(=O)[C@]4(C)[C@@H]5[C@H](C[C@H]4[C@@H]3CC[C@H]2C1)O[C@@]1(OCC(C)CC1Br)[C@H]5C (some centres unmarked)
nucOX (composite Z-score) [1]: −0.585 | ROS (composite Z-score) [2]: 1.188 | cyt c (composite Z-score) [3]: 0.565 | GE-HTS (composite Z-score) [4]: −0.560 | MTT (composite Z-score) [5]: −2.231 | mitoOX (composite Z-score) [6]: −0.446 | ΔΨm (composite Z-score) [7]: −0.260 | Viability (composite Z-score) [8]: 0.710
